Data set [1] in a line: In vivo assessment of brain penetration in mice (IV 1 mg/kg, plasma and brain levels). The note with it: mouse, BL/6 mice; for Kp at 15 min / Kp at 60 min: brain and plasma, brain:plasma; for Kp at 15 min: read-out: Mouse B:P at 15 min; for Kp at 60 min: read-out: Mouse B:P at 60 min.
Another data set has as its target T1, Full length Human HDAC6 (Homo sapiens, UniProt Q9UBN7).
T1 sequence (Q9UBN7 1-1215): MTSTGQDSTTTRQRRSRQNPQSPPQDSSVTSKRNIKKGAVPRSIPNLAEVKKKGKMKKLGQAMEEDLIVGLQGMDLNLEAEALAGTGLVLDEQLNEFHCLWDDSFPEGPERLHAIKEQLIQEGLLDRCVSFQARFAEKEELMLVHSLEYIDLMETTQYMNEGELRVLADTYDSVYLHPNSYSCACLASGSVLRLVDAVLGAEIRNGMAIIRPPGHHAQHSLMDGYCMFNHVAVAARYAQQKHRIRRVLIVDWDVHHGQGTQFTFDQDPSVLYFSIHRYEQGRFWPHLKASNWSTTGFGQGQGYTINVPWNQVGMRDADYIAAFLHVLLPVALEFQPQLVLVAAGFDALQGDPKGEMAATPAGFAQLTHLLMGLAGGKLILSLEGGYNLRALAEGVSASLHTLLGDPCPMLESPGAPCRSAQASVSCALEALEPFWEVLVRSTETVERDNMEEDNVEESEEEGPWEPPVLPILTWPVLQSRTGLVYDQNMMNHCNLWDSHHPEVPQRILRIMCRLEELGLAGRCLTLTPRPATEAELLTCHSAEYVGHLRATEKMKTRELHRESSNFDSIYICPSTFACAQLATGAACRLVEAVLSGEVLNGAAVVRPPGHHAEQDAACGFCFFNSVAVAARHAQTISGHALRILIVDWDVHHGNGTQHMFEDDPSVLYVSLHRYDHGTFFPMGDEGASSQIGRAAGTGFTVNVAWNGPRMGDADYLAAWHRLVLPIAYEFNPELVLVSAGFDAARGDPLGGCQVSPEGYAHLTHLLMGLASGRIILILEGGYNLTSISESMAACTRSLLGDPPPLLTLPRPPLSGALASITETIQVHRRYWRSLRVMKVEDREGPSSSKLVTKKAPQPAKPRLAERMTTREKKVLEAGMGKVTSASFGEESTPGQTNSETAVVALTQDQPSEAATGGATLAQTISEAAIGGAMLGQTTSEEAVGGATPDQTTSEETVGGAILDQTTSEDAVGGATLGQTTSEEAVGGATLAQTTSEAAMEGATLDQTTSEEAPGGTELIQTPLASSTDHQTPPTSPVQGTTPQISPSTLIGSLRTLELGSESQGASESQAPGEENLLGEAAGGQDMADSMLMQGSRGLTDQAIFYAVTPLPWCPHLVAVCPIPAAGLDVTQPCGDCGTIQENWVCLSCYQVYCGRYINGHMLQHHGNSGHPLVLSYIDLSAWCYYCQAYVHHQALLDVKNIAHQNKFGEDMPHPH
The note with it: for Selectivity (6 v 8) (fold): ratio of HDAC8 IC50/HDAC6 IC50.

The next data set concerns the target Full length Human HDAC1 (Homo sapiens, UniProt Q13547).
For a further data set, the target named is T2, Human HDAC7 aa 518-end (Homo sapiens, UniProt Q8WUI4).
T2 sequence (Q8WUI4 518-952 limits assumed): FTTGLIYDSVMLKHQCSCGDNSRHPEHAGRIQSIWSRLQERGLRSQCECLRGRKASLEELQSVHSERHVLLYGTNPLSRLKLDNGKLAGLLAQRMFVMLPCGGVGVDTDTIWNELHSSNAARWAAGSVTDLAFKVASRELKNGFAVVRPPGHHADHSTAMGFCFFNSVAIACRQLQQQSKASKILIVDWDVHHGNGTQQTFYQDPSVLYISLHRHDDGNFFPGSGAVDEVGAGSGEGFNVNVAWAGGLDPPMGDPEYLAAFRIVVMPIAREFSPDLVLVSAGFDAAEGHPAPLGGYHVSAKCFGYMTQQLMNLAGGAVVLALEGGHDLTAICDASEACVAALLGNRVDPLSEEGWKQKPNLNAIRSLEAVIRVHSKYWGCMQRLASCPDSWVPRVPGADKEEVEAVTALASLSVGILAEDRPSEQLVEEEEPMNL

Another data set deals with T3, Full length Human HDAC8 (Homo sapiens, UniProt Q9BY41).
T3 sequence (Q9BY41 1-377): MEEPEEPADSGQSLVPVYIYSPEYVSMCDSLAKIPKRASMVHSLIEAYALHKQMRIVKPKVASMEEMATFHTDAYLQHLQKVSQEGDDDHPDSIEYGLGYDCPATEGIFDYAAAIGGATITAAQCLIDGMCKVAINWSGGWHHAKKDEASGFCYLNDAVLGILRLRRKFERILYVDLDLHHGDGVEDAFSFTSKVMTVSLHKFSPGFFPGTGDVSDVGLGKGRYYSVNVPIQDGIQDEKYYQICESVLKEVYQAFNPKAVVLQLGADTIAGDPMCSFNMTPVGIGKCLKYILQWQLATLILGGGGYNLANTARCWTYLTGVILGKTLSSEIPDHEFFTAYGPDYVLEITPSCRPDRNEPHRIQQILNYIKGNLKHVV

The target in data set [2] is Human HDAC9 a.a. 604-1066 (Homo sapiens, UniProt Q9UKV0).
Human HDAC9 a.a. 604-1066, sequence (Q9UKV0 604-1066 isoform Q9UKV0-5): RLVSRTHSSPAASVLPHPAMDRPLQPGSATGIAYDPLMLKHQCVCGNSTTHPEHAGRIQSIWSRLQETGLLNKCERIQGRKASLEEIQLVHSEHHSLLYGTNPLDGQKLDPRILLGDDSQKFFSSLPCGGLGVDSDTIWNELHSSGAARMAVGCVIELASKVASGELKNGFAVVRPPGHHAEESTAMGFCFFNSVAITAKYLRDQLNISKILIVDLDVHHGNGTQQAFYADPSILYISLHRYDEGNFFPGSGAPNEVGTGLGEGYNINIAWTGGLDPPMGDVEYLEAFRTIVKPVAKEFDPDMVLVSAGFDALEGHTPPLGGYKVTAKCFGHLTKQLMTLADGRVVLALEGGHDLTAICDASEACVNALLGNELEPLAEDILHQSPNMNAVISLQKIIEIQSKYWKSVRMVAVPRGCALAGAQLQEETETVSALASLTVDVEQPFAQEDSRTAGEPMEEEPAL
The next data set addresses T4, Full length Human HDAC10 (Homo sapiens, UniProt Q969S8).
T4 sequence (Q969S8 1-669): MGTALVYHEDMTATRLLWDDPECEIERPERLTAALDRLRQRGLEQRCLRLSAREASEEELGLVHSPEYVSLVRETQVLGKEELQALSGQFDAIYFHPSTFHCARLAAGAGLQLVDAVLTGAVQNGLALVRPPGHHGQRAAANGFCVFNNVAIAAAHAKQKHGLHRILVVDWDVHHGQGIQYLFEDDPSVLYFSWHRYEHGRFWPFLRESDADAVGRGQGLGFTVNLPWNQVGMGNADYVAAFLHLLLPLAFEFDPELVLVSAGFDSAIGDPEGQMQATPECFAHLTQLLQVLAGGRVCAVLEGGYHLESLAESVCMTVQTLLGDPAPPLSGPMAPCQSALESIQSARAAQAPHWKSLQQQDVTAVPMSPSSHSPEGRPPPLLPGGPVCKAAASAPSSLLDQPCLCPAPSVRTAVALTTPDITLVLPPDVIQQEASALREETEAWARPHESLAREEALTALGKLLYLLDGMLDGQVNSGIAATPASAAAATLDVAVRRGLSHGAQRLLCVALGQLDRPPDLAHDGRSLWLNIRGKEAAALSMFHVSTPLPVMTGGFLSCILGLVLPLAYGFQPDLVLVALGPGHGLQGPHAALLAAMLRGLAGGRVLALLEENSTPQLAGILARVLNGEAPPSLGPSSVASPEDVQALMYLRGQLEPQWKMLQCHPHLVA

The mark [3] stands for this setting: brain, read-out: Mouse Brain Conc (μM) at 15 min.
The mark [4] stands for this setting: brain, read-out: Mouse Brain Conc (μM) at 60 min.
[5] abbreviates: plasma, read-out: Mouse Plasma Conc (μM) at 15 min.
The mark [6] stands for this setting: plasma, read-out: Mouse Plasma Conc (μM) at 60 min.
[7] abbreviates: read-out: In vitro enzymatic IC50, HDAC Paralog 6, Table 2.
Where [8] appears, read: read-out: In vitro enzymatic IC50, HDAC Paralog 8, Table 2.

Read-outs that look alike come from different tables or passages of the source.

Full length Human HDAC1, sequence (Q13547 whole entry, the tested form may be a part): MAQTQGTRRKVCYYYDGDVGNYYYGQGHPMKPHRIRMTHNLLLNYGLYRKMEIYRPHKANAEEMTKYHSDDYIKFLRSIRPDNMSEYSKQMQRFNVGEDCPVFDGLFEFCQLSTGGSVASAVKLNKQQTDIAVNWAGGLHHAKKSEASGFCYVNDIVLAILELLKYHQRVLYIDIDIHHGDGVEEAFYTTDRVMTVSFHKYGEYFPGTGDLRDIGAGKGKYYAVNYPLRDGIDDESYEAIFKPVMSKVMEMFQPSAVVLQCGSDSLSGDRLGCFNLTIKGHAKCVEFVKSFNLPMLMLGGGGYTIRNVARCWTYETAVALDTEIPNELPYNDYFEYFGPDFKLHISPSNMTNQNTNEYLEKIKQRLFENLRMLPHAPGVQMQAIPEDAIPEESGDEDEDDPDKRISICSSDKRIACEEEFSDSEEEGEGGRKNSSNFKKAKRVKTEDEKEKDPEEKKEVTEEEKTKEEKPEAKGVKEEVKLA

`O=C(NO)c1ccc2c(c1)C[C@@H]1CCCN1C2` (single isomer, unassigned) [compound 121]: the concentration at 15 min came out at 0.19 µM in data set [1] (setting [3]) and 0.96 µM in data set [1] (setting [5]). Also, the concentration at 60 min in data set [1] (setting [4]) stood at 0.06 µM; in data set [1] (setting [6]), 0.01 µM. The Kp at 15 min in data set [1] was 0.19. Besides, the Kp at 60 min in data set [1] was determined as 5.89. Further, the “Selectivity (6 v 8) (fold)” value on Full length Human HDAC6 (Table 1, number) is on record as 80.9 fold; on Full length Human HDAC6 (Table 1, range class) it was “III (III: >10-100)”.

Usually IC50 stands for the point on the concentration scale where inhibition reaches its midpoint. For `O=C(NO)c1cc(F)c2c(c1)CN1CCC[C@@H]1C2` (single isomer, unassigned) [compound 124], the IC50 against Full length Human HDAC1 is greater than 100000 nM; on Full length Human HDAC6 it was 1 to 100 nM; at Human HDAC7 aa 518-end it was 1000 to 10000 nM; at Full length Human HDAC8, 1000 to 10000 nM; in data set [2] it was greater than 100000 nM.

For `C[C@@H]1C[C@H]2c3c(F)cc(C(=O)NO)cc3CCN2C1` (single isomer, unassigned) [compound 152], the half-inhibitory concentration (IC50) was in the range of 10000 to 100000 nM against Full length Human HDAC1; 1 to 100 nM at Full length Human HDAC6; 100 to 1000 nM against Human HDAC7 aa 518-end; 1000 to 10000 nM against Full length Human HDAC8; 100 to 1000 nM in data set [2].

In the case of `O=C(NO)c1ccc(CN2CCC3(CCCCC3)CC2)c(F)c1` [compound 74], the 50% inhibitory concentration (IC50) against Full length Human HDAC6 lay within 100 to 1000 nM; at Full length Human HDAC6 (setting [7]) it was 100 to 1000 nM; against Human HDAC7 aa 518-end, 1000 to 10000 nM; against Full length Human HDAC8, 1000 to 10000 nM; on Full length Human HDAC8 (setting [8]), 1000 to 10000 nM; at Full length Human HDAC10 it was 10000 to 100000 nM. Also, the “Selectivity (6 v 8) (fold)” value on Full length Human HDAC6 (Table 1, number) was 24.9 fold; on Full length Human HDAC6 (Table 1, range class), “III (III: >10-100)”.

`O=C(NO)c1ccc(CN2CCC3(C2)C2CC4CC(C2)CC3C4)c(F)c1` (stereo not drawn) [compound 78]: the IC50 is 1000 to 10000 nM against Full length Human HDAC6; 1000 to 10000 nM at Full length Human HDAC6 (setting [7]); 10000 to 100000 nM against Human HDAC7 aa 518-end; 100 to 1000 nM at Full length Human HDAC8; 100 to 1000 nM on Full length Human HDAC8 (setting [8]); greater than 100000 nM against Full length Human HDAC10. In addition, the “Selectivity (6 v 8) (fold)” value at Full length Human HDAC6 (Table 1, number) is listed as 0.4 fold; on Full length Human HDAC6 (Table 1, range class), “I (I: 0.1-1)”.

For the compound `O=C(NO)c1cc(F)c2c(c1)CCN(C1CC3(COC3)C1)C2` [compound 111], the IC50 lay in the range of 1 to 100 nM on Full length Human HDAC6; 1 to 100 nM on Full length Human HDAC6 (setting [7]); 10000 to 100000 nM on Human HDAC7 aa 518-end; 10000 to 100000 nM against Full length Human HDAC8; 10000 to 100000 nM on Full length Human HDAC8 (setting [8]); 10000 to 100000 nM on Full length Human HDAC10. Further, the “Selectivity (6 v 8) (fold)” value on Full length Human HDAC6 (Table 1, number) was 461.1 fold; at Full length Human HDAC6 (Table 1, range class) it was “IV (IV: >100-1000)”.

Consider `O=C(NO)c1cc(F)c2c(c1)CCN(C1CC3(CCC3)C1)C2` [compound 112], for which the IC50 against Full length Human HDAC6 was 1 to 100 nM; on Full length Human HDAC6 (setting [7]), 1 to 100 nM; against Human HDAC7 aa 518-end it was 10000 to 100000 nM; on Full length Human HDAC8 it was greater than 100000 nM; on Full length Human HDAC8 (setting [8]), greater than 100000 nM; on Full length Human HDAC10 it was greater than 100000 nM. Further, the “Selectivity (6 v 8) (fold)” value at Full length Human HDAC6 (Table 1, number) is given as greater than 12414.6 fold; on Full length Human HDAC6 (Table 1, range class) it was “V (V: >1000)”.

As to `O=C(NO)c1cc(F)c2c(c1)CN(CC13C4C5C6C4C1C6C53)CC2` (stereo not drawn) [compound 116, 2-(cuban-1-ylmethyl)-5-fluoro-N-hydroxy-1,2,3,4-tetrahydroisoquinoline-7-carboxamide], the concentration at 15 min came to 0.39 µM in data set [1] (setting [3]) and 0.25 µM in data set [1] (setting [5]). Besides, the concentration at 60 min was found to be 0 µM in data set [1] (setting [4]) and 0.02 µM in data set [1] (setting [6]). Also, the Kp at 15 min in data set [1] turned out to be 1.57. Also, the Kp at 60 min in data set [1] is 0. Also, the IC50 against Full length Human HDAC6 lay within 1 to 100 nM; against Full length Human HDAC8 it was 100 to 1000 nM. In addition, the “Selectivity (6 v 8) (fold)” value is recorded as 11 fold on Full length Human HDAC6 (Table 1, number) and “III (III: >10-100)” on Full length Human HDAC6 (Table 1, range class).

(Values after patent US12528767B2, “HDAC6 inhibitors and uses thereof” (Eikonizo Therapeutics, Inc., priority 2019, dated 2026).)
